According to patent US20250041284A1, “TREATMENT OF NEUROLOGICAL DISORDERS” (Praxis Precision Medicines, Inc., priority 2022, published 2025):
“And” between values parts separate entries of the source, which are not always exact repeats. Equal values may be shown once. “Also recorded” adds a separate entry of the source.

Columns and labels:
[1] = test system: spontaneous locomotor activity in male CD-1 mice; test: Spontaneous locomotor activity (sLMA) (Example 4); type: in vivo, mouse
Experimental: (§1) Food and water were available ad libitum.
(§2) Dosing solutions were prepared on each experiment day. […] All solutions were protected from light. Samples from dosing solutions were stored at 4° C.
(§3) The sLMA test was carried out over two days. Half of the mice from each treatment group was tested on each day.
(§4) Animals were p.o. administered Compound 1 or 35% HPBCD (vehicle) 30 minutes prior to the sLMA test.
(§5) All mice were anesthetized with CO2. […] The supernatant plasma was pipetted into Eppendorf tubes.
(§6) An aliquot of 20 μL unknown sample, calibration standard, quality control, dilute quality control, single blank and double blank sample was added to a 1.5 mL tube. Each sample (except the double blank) was quenched with 300 μL IS solution (double blank sample was quenched with 300 μL ACN), and then the mixture was vortex-mixed well for at least 15 seconds and centrifuged for 15 minutes at 12000 g, 4° C. 65 μL supernatant was transferred to a 96-well plate and centrifuged for 5 minutes at 3220 g, 4° C. Then 3 μL supernatant was directly injected for LC-MS/MS analysis.
(§7) Brain homogenate was prepared by homogenizing brain tissue with 5 volumes (w:v) of cold 15 mM PBS/MeOH (V:V, 2:1). An aliquot of 40 μL unknown sample, calibration standard, quality control, dilute quality control, single blank and double blank sample was added to a 1.5 mL tube. Each sample (except the double blank) was quenched with 600 μL IS solution (double blank sample was quenched with 600 μL ACN), and then the mixture was vortex-mixed well for at least 15 seconds and centrifuged for 15 minutes at 12000 g, 4° C. 65 μL supernatant was transferred to a 96-well plate and centrifuged for 5 minutes at 3220 g, 4° C. Then 3 μL of the supernatant was directly injected for LC-MS/MS analysis.

[2] = Spontaneous locomotor activity (sLMA) (Example 4); type: in vivo, mouse; conditions: male, CD-1, mouse, in vivo, po, 30 min post-dose, 30-minute test
Experimental: as §1, §2, §3, §4, §5, §6, §7

hNaV1.6 = molecular target: T1, hNaV1.6 (Homo sapiens, UniProt Q9UQD0); test: Apparent binding (KON) and unbinding (KOFF) rates inferred from INa inhibition kinetics; type: cell-based
T1 construct: expressed in transfected cells; host or cells: HEK cells

[3] = test system: various NaV isoforms and orthologs; test: ATX-II induced persistent INa at NaV isoforms and orthologs; type: cell-based; conditions: in words, FIG. 8C
[4] = test system: MES-induced seizures in male CD-1 mice; test: Maximal electroshock (MES) induced seizure, latency (Example 3); type: in vivo, mouse
Experimental: as §1
Dosing solutions were prepared on each experiment day. […] VPA was prepared in saline (Vehicle 1). All solutions were protected from light. All compounds and vehicles were dosed at 10 ml/kg.
The MES test was carried out over two days with half of the mice from each treatment group being tested on each day. Mice were brought to the test room at least one hour before the start of the experiment. […] Mice were randomly assigned into one of the six treatment groups.
Animals were p.o. (oral) administered Compound 1 or 35% HPBCD (Vehicle 2) 30 minutes prior to the MES test or i.p. administered VPA or saline (Vehicle 1) 30 minutes prior to the MES test.
A Grass S88x (Grass Technologies of Astro-Med, Inc., West Warwick, RI) Stimulus Isolation Unit (A385, WPI Inc., USA) was set to deliver a 50 mA square-wave stimulus, with a 0.8 second duration, a pulse width of 10 msec, and a frequency of 50 Hz. A pair of custom stainless steel electrodes were soaked in 0.2% Agar, and then the subject received bilateral transauricular stimulation through ear-clip electrodes. During the stimulation, mice were manually restrained. They were then released into the observation cage for convulsion observation for 60 seconds immediately after stimulation. Each mouse was observed continuously by individuals blinded to treatment conditions and results were recorded.
Anti-seizure assessment endpoints were: (1) latency of hindlimb tonic flexion; (2) latency of hindlimb tonic extension; (3) total #hindlimb tonic flexions; (4) total #hindlimb tonic extensions; (5) latency to death; and (6) mortality rate.
Following the experiment, mice were anesthetized with CO2 and terminal plasma and brain tissue samples were collected. […] The supernatant plasma was pipetted into Eppendorf tubes.
An aliquot of 20 μL unknown sample, calibration standard, quality control, dilute quality control, single blank and double blank sample was added to a 1.5 mL tube. […]
From these fitted curves, ED50 and EC50 values were calculated.

[5] = recovery from inhibition of hNaV1.6 INa

T1 sequence (Q9UQD0 whole entry): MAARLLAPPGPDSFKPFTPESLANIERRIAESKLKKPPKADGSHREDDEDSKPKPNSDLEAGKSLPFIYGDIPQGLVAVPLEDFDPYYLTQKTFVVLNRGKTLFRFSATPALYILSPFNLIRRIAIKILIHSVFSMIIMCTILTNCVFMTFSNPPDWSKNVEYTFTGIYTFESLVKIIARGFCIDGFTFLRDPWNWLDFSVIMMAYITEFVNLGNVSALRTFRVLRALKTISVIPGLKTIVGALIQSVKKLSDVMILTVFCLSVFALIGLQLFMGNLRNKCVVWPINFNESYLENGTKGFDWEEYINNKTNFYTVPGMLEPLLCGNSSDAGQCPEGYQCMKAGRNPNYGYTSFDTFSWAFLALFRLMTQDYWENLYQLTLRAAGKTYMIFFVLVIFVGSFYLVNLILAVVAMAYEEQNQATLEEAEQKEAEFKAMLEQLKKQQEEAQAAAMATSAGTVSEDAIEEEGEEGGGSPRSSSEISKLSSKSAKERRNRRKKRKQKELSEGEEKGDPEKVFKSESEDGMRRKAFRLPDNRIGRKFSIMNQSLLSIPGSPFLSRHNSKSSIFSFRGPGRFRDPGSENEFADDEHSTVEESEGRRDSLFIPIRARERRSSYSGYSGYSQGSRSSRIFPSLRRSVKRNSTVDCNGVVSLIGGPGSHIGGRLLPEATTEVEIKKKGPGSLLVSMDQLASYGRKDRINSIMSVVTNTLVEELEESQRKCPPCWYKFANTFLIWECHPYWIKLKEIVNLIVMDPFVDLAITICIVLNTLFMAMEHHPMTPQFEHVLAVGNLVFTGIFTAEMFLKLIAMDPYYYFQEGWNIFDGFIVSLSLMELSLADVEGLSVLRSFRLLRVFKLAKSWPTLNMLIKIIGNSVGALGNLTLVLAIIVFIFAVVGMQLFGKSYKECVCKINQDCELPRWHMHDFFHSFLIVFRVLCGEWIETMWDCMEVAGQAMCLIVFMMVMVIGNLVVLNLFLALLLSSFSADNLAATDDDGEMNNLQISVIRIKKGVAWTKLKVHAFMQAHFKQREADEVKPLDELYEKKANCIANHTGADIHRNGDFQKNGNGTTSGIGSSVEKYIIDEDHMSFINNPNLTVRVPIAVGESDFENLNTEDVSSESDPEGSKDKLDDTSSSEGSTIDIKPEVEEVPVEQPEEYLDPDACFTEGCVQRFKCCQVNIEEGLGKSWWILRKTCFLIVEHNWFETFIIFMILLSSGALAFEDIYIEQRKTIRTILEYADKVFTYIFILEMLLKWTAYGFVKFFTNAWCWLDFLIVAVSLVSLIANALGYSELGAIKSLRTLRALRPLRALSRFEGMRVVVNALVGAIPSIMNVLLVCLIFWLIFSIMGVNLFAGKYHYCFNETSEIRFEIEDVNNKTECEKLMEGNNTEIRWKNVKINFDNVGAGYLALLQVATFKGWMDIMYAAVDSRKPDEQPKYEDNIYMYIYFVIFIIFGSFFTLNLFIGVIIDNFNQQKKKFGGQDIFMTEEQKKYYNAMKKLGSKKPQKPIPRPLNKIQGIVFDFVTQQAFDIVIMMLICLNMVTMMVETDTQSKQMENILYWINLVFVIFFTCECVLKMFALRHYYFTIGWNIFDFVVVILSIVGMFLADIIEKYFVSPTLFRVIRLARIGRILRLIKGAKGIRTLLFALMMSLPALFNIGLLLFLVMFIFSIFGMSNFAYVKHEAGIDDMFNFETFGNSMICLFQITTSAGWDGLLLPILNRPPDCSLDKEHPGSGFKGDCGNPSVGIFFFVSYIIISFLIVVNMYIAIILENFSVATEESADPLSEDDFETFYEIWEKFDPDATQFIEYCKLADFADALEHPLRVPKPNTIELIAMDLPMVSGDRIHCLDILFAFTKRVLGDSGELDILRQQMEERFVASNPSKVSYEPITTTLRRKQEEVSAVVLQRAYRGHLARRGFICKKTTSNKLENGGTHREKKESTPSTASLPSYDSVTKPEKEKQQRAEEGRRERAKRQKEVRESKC

## CCOC(F)(F)c1nnc2ccc(-c3cnc(OCC(F)(F)F)c(F)c3)cn12 [Compound 1]
[1]; 10 and 20 mg/kg p.o.
  total traveling distance in the 30-minute sLMA test: significantly reduced total traveling distance; also recorded: significantly reduced locomotor activity
[1]; p.o., 30 min post-dose, 30-minute test
  sLMA TD50: 10.27 mg/kg
[1]; plasma concentration
  sLMA plasma TC50: 1123 ng/g
[2]
  TD50: 10.3 mg/kg
hNaV1.6; development of inhibition of hNaV1.6 INa
  apparent KON: 4.2e+06 M⁻¹ s⁻¹ and 4.168e+06 M⁻¹ s⁻¹
hNaV1.6; development of inhibition of hNaV1.6 INa, read-out: apparent KON
  kon: 4.2e+06 M⁻¹ s⁻¹
hNaV1.6; fold faster
  KON versus carbamazepine: > 1,500 ×
hNaV1.6; fold slower unbinding
  KOFF slower than carbamazepine: 33 ×
hNaV1.6; [5]
  apparent KOFF: 1.7 s⁻¹ and 1.72 s⁻¹
  koff: 1.7 s⁻¹
[3]
  inhibition of ATX-II induced persistent INa at multiple NaV isoforms and orthologs: inhibits ATX-II induced persistent INa expressed by multiple NaV isoforms and orthologs
[4]; 1 mg/kg p.o.
  latency to seizures following bilateral transauricular stimulation: significantly increased latency to seizures
[4]; 10 mg/kg
  block of evoked seizures (MES): completely blocked evoked seizures
[4]; Mus musculus, po, 30 min before MES, latency to seizures
  ED50: 0.67 mg/kg
